Experiments:
Histamine H3 receptor = Histamine H3 receptor (Rattus norvegicus, UniProt Q9QYN8); test: In vitro binding affinity was measured against Histamine H3 receptor on rat cerebral cortex.; format: tissue-based
[1] = target: Histamine H2 receptor (Cavia porcellus) (UniProt P47747); conditions: Cardiac atrium
[2] = target: Histamine H1 receptor (Cavia porcellus) (UniProt P31389); conditions: Jejunum
[3] = target: Histamine H3 receptor (Rattus norvegicus) (UniProt Q9QYN8); conditions: Cerebral cortex
Sequence of Histamine H3 receptor (Rattus norvegicus) (Q9QYN8 whole entry): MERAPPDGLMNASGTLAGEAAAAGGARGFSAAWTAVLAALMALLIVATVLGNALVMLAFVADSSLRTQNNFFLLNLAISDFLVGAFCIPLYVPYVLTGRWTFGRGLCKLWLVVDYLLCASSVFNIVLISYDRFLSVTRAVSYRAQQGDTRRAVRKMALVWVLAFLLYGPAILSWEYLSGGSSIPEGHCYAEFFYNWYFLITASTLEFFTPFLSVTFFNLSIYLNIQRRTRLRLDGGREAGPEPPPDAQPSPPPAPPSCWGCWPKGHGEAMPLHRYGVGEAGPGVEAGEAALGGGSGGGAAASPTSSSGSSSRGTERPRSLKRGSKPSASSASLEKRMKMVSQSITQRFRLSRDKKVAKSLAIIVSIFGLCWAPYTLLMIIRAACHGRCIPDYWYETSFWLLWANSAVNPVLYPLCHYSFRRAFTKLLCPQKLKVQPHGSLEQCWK

[4] = target: Histamine H3 receptor (Cavia porcellus) (UniProt Q9JI35); conditions: Jejunum
Sequence of Histamine H3 receptor (Cavia porcellus) (Q9JI35 whole entry): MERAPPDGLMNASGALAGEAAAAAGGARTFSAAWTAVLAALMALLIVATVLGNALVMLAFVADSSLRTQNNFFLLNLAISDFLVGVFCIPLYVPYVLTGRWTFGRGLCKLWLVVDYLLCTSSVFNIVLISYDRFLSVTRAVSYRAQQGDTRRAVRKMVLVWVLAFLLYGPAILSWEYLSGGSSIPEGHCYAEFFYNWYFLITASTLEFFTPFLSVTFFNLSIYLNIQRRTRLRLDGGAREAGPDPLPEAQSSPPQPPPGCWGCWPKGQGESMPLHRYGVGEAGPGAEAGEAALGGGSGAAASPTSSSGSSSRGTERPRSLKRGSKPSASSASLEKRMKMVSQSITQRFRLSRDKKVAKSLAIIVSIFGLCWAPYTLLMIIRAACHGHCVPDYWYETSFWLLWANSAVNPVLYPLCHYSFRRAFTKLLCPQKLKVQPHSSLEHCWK

Sequence of Histamine H2 receptor (Cavia porcellus) (P47747 whole entry): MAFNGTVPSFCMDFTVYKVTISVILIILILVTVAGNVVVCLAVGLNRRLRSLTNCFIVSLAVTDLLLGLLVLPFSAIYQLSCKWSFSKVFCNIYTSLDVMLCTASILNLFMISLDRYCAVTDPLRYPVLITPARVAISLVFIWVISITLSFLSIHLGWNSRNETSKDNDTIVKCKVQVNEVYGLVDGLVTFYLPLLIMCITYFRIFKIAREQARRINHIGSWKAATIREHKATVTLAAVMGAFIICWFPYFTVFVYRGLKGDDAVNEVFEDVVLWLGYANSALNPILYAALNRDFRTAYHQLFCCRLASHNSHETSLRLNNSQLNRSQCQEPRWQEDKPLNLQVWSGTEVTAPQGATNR
Sequence of Histamine H1 receptor (Cavia porcellus) (P31389 whole entry): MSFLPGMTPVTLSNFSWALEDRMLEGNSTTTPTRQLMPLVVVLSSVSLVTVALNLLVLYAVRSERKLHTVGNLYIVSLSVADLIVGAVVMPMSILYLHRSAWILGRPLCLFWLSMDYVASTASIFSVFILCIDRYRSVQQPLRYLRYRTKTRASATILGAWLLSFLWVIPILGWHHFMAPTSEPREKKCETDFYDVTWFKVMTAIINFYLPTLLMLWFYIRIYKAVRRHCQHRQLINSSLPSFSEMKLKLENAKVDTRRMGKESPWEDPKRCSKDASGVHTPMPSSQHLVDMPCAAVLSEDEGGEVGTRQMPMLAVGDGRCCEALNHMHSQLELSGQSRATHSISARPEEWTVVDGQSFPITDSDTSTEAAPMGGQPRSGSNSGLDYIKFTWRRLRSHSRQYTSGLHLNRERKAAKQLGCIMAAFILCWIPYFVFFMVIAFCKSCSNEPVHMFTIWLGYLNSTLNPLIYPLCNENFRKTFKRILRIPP
Sequence of Histamine H3 receptor (Q9QYN8 whole entry): as the sequence (Q9QYN8 whole entry) above

SMILES | Ki (Histamine H3 receptor) [µM] | pD2 [1] | pD2 [2] | pD2 [3] | pD2 [4]
N[C@@H]1C[C@H]1c1cnc[nH]1 [VUF-5296] | 0.0251 | – | – | – | –
NCCc1c[nH]cn1 | – | 6.1 | 6.6 | 7.4 | 7.4
N[C@H]1C[C@@H]1c1c[nH]cn1 [VUF-5297] | 0.00174 | 4.8 | 5 | 7.08 | 6.64
N[C@@H]1C[C@H]1c1c[nH]cn1 | – | 4.9 | 4.5 | 5.75 | 6.15
